Source: publication PMC11331414, “Small molecule telomerase inhibitors are also potent inhibitors of telomeric C-strand synthesis” (RNA, 2024)
Read-outs that look alike come from different tables or passages of the source.

How the values were obtained:
telomerase = target: T1, telomerase (Homo sapiens, UniProt O14746); assay: Telomerase inhibition (direct primer extension, 3xTEL primer); type: biochemical
T1 construct: 3xFLAG (N); made in house; host or cells: HEK293T

[1] = target: CST–PP (CST–polymerase α–primase); assay: CST–PP C-strand synthesis inhibition; type: biochemical, human; conditions: for IC50: 25 nM CST–PP, 25 nM template, read-out: IC50synthesis
Protocol: Telomeric C-strand synthesis was performed with CST–PP purified from cultured human cells (HEK293T), a synthetic telomeric DNA template (9xTEL, (TTAGGG)9), ribonucleotides to allow primase activity, and deoxynucleotides including α-^32P-dATP to monitor polymerase α extension. To test whether TMPyP4 would inhibit DNA synthesis by CST–PP, we preincubated 25 nM 9xTEL with increasing concentrations of the drug, then added 25 nM CST–PP and nucleotides and observed C-strand synthesis by gel electrophoresis (Fig. 1A, left). To serve as a size marker and recovery control, a small fraction of the template (T) was radiolabeled. The expected synthesis products were observed, all smaller than the 54-nt template (Supplemental Fig. S2A). The limited extension reflects the limited processivity of CST–PP, and the 6-nt ladder of products is due to multiple initiation sites on the 6-nt repeat template ([Zaug et al. 2022]).
(§1) CST–PP was purified from HEK 293T/17 cells (CRL-11268, ATCC), as previously described ([Zaug et al. 2021], [2022]). Briefly, cells were transfected with 3xFLAG-CTC1, Myc-STN1, and HA-TEN1 at a ratio of 1:1:1, expanded and grown for 48 h, and collected. The complex was purified by successive anti-FLAG and anti-HA immunoprecipitation. Endogenous Polα–primase copurifies with CST ([Zaug et al. 2022]). The purity of the complex was verified by silver staining and concentrations were determined by western blot analysis ([Zaug et al. 2022]).
Reactions (10 μL) contained 25 nM CST–PP and 25 nM single-stranded template DNA in 1× reaction buffer (50 mM Tris-HCl pH 8.0, 2 mM MgCl2, 1 mM spermidine, and 5 mM β-mercaptoethanol), 1× Na^+/K^+ (75 mM KCl and 50 mM NaCl) or 1× Li^+ (125 mM LiCl) salts, rNTPs (0.2 mM each CTP, UTP, ATP), and dNTPs (0.5 mM dCTP, 0.5 mM dTTP, 0.33 μM [α-^32P]dATP [300 Ci mmol^–1], 0.29 μM unlabeled dATP), the indicated concentrations of TMPyP4 or PDS, and 0.2% DMSO.
DNA templates and small molecule dilutions were prepared fresh immediately before each use. A small proportion of the template DNA was 5′ radiolabeled (typically ∼0.1–0.5 nM, 5000 counts per minute per reaction) to serve as a recovery and loading control and internal size marker. CST–PP generated more products with 9xnoGG in Na^+/K^+ than in other conditions, so in that condition, 5× more radioactive template was used (keeping total DNA at 25 nM) so that the control signal was not overwhelmed by the product signal. DNA templates in buffer and designated salt were placed in 95°C heat block for 5 min and cooled at room temperature for 30 min. Dilutions of PDS or TMPyP4 in 1% DMSO (or 1% DMSO only for no inhibitor condition) were added (final 0.2% DMSO), and mixtures were incubated in 30°C water bath for 30 min. CST–PP was added and mixtures were returned to water bath for 30 min. NTPs were added and the reaction proceeded at 30°C for 1 h; 50 µL stop mix (3.6 M ammonium acetate and 0.2 mg mL^−1 glycogen) was then added.
Quenched reactions were cleaned up using the Oligo Clean & Concentrator kit (D4060, Zymo) and eluted in water. An equivalent volume of 2× loading dye (95% formamide, 20 mM EDTA, and 0.05% each bromophenol blue and xylene cyanol) was added. Samples were boiled for 5 min, then loaded on a 10% acrylamide, 7 M urea, and 1× TBE gel. Molecular weight ladders were generated by telomerase as above (no small molecule). Gels were run at 30 W until the bromophenol blue was ∼2 in from the bottom (∼1–1.5 h) and dried on Whatman 3 mm paper at 80°C under a vacuum for 15–30 min. Gels were then exposed to a phosphorimager screen, which was imaged with Amersham Typhoon scanner 5 and analyzed using ImageQuant. The intensity of synthesis was normalized to the intensity of the loading control in the same lane. Relative synthesis was calculated by dividing normalized synthesis at each inhibitor concentration by the normalized synthesis without inhibitor. […]

[2] = target: CST–PP (CST–polymerase α–primase); assay: CST–PP binding to template DNA (EMSA) inhibition; parameters: species or system human; conditions: 25 nM CST–PP, 25 nM template, read-out: IC50binding
Protocol: To test directly if TMPyP4 inhibited CST–PP by preventing association with the templates, we next measured the effect of the drug on the proportion of DNA bound by CST–PP. We used the same conditions as in the synthesis reaction and observed that the DNA was about half bound in the absence of an inhibitor. We prepared DNA templates with an increasing concentration of TMPyP4 as before, then incubated with CST–PP and analyzed by EMSA (electrophoretic mobility shift assay) (Fig. 2A). By normalizing the fraction of DNA bound at each concentration of inhibitor to fraction bound without drug, we determined IC50 values for binding (IC50binding) in the two salts for both 9xTEL and 9xnoGG (Fig. 2B; Table 1).
as §1
Binding reactions were prepared identically to synthesis reactions, except glycerol (10% final) was added in place of the NTP mix. DNA and small molecules were incubated for 30 min at 30°C, then CST was added and incubation continued for another hour. Samples were loaded onto a 1× TBE 0.7% agarose gel and run at 70 V for 75 min at 4°C. The gels were placed on Hybond N^+ atop Whatman 3 mm paper and dried under a vacuum at 80°C for 1 h. They were then exposed to a phosphorimager screen, which was imaged using an Amersham Typhoon scanner 5. Binding was analyzed using ImageQuant; fraction bound was determined by dividing the number of counts in the bound band by the total number of counts in the lane, not including the well. Relative binding was calculated by dividing the fraction bound at each inhibitor concentration by the fraction bound without inhibitor. Results were plotted and analyzed as above.

9xTEL DNA (TTAGGG)9 = assay: Circular dichroism thermal melt of 9xTEL DNA; parameters: species or system human; conditions: 10:1 small molecule:DNA
Description: As the native gels were insufficient to identify the types of secondary structures formed by the ssDNA templates, we turned to circular dichroism (CD) for more information. We first examined 9xTEL in NaCl; with positive peaks at 290 and 240 nm and a negative peak at 260 nm, the spectrum matched published spectra for antiparallel GQ formation (Fig. 5A). We also collected spectra of 9xTEL in Na^+/K^+ and in K^+ only, which were both consistent with hybrid GQ (Supplemental Fig. S4A,B). Then we added TMPyP4 to 9xTEL at a ratio of 10:1 in each salt condition. […] We performed thermal melts of 9xTEL in Na^+ with and without TMPyP4, monitoring the signal from the positive peak at 290 nm and the negative peak at 260 nm (Fig. 5B). We found the drug increased the melting temperature (Tm) by about 10°C. Thus, 9xTEL DNA in Na^+ forms an antiparallel GQ that is stabilized by TMPyP4, consistent with previous studies ([Martino et al. 2009]).
(§2) CD samples contained 250 nM DNA in 75 mM NaCl and 50 mM KCl (Na^+/K^+), or 125 mM NaCl, KCl, or LiCl, 0.2× reaction buffer (10 mM Tris-HCl pH 8.0, 0.4 mM MgCl2, 0.2 mM spermidine, and 1 mM β-mercaptoethanol), and 0.02% DMSO; those with inhibitors also included 2.5 µM TMPyP4 or PDS. Baseline control samples consisted of 1× corresponding salt and 0.2× reaction buffer.
(§3) Samples containing DNA, salt, and buffer were placed in 95°C heat block for 10 min and cooled at room temperature for 30 min. PDS, TMPyP4, or DMSO was added and samples were incubated at 30°C for 30 min; 1.8 mL was added to a 10 mm path length cuvette and loaded into a Chirascan Plus Circular Dichroism and Fluorescence Spectrometer (Applied Photophysics). Spectra were collected between 360 and 220 nm with a step size of 1 nm. Three repeats were averaged and smoothed with a second-order polynomial with 10 neighbors on each side (Prism).
Continuous ramped thermal melts were performed at the indicated wavelengths with a 2 nm bandwidth. The temperature was increased from 20°C to 90°C at a rate of 1°C/min with a time-per-point of 12 sec. […]

9xnoGG DNA (TGAGTG)9 = assay: Circular dichroism thermal melt of 9xnoGG DNA; conditions: 10:1 small molecule:DNA; for thermal melt transition temperature: CD at 260 and 240 nm
Protocol: We performed thermal melts of 9xnoGG in Na^+ and Li^+ and monitored the signal at the predominant peaks (positive at 260 nm and negative at 240 nm). The curves were biphasic, with an initial sharp transition at ∼26°C and a minor, broader transition ∼40°C (Fig. 5E). We wondered whether the first transition might represent the dissociation of a dimeric species and collected a full CD spectrum of 9xnoGG at both 12°C and 30°C. While the spectra were very similar, the amplitudes of the positive and negative peaks at 12°C were nearly twice that of the same sample at 30°C (Supplemental Fig. S5B). CD peak attenuation is consistent with a dimer-to-monomer transition ([Kypr et al. 2009]; [Vorlíčková et al. 2012]).
as §2, §3
Continuous ramped thermal melts were performed at the indicated wavelengths with a 2 nm bandwidth. The temperature was increased from 20°C to 90°C at a rate of 1°C/min with a time-per-point of 12 sec. Positive peaks were normalized to 1 at the lowest temperature, and negative peaks were normalized to −1 at the lowest temperature. Spectra were smoothed as above.

T1 sequence (O14746 whole entry): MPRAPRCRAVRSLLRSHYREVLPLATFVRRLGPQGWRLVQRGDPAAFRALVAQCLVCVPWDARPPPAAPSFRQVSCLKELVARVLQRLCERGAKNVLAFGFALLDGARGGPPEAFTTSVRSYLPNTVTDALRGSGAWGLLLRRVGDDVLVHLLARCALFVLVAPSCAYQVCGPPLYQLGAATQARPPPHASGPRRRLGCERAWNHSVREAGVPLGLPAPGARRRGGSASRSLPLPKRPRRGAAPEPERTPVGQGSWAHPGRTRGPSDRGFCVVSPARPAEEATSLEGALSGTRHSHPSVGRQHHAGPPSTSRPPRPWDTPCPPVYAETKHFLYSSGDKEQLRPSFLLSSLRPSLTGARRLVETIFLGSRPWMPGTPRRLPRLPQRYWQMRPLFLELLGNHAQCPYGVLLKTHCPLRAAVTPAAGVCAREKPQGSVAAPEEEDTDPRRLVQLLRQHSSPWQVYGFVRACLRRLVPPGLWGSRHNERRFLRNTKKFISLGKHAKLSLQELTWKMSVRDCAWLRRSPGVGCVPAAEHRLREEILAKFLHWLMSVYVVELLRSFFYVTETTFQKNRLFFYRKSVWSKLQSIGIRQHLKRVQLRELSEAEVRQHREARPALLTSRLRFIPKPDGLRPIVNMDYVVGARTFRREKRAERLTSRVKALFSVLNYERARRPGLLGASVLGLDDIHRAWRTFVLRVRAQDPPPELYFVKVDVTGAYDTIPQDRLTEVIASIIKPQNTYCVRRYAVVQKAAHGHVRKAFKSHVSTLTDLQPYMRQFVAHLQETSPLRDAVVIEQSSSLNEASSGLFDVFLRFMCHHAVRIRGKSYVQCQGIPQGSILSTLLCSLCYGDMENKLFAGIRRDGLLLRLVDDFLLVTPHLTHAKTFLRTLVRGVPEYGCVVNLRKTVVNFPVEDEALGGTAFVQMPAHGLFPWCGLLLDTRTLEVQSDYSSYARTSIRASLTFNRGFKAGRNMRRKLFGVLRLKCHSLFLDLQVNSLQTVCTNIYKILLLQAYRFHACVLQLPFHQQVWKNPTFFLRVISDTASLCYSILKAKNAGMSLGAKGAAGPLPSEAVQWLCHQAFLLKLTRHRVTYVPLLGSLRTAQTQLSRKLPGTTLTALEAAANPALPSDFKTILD

Compound | IC50 (telomerase) | IC50synthesis in Li+ relative to Na+/K+ (fold higher) ([1]; template 9xTEL) | IC50 ([1]; template 9xTEL, Li+) | IC50 ([1]; template 9xTEL, Na+/K+) | IC50 ([1]; template 9xnoGG, Li+) | IC50 ([1]; template 9xnoGG, Na+/K+) | IC50 ([2]; template 9xTEL, Li+) | IC50 ([2]; template 9xTEL, Na+/K+) | IC50 ([2]; template 9xnoGG, Li+) | IC50 ([2]; template 9xnoGG, Na+/K+) | increase of melting temperature (Tm) (9xTEL DNA (TTAGGG)9; 9xTEL in Na+, CD at 290 and 260 nm) | thermal melt transition temperature (9xnoGG DNA (TGAGTG)9; 9xnoGG in Li+) | thermal melt transition temperature (9xnoGG DNA (TGAGTG)9; 9xnoGG in Na+) | increase of melting temperature of dimeric 9xnoGG (9xnoGG DNA (TGAGTG)9; 9xnoGG) | IC50 (telomerase; 2 nM telomerase, 50 nM 3xTEL DNA primer, 75 mM KCl/50 mM NaCl, 30°C, 1 h, read-out: half maximal inhibitory concentration (IC50) of telomerase) | stabilization in full spectrum thermal melt (9xTEL DNA (TTAGGG)9; 9xTEL in Li+) | stabilization of GQ secondary structure in thermal melt (9xTEL DNA (TTAGGG)9; 9xTEL in NaCl, complex could not be entirely melted, no Tm calculated)
C[n+]1ccc(-c2c3nc(c(-c4cc[n+](C)cc4)c4ccc([nH]4)c(-c4cc[n+](C)cc4)c4ccc([nH]4)c(-c4cc[n+](C)cc4)c4nc2C=C4)C=C3)cc1 [TMPyP4] | 6400 nM | about fourfold | 1000 nM | 250 nM | 310 nM | 220 nM | 840 nM | 260 nM | 200 nM | 190 nM | about 10 °C | 52 °C | 52 °C | over 20 °C |  |  | 
NCCOc1cc(C(=O)Nc2cc(OCCN)c3ccccc3n2)nc(C(=O)Nc2cc(OCCN)c3ccccc3n2)c1 [PDS, pyridostatin] |  |  | 110 nM | 140 nM | 180 nM | 200 nM | 140 nM | 110 nM | 160 nM | 120 nM |  |  |  |  | 520 nM | considerable stabilization | substantial stabilization
